For experiment [1], the system named is P. gingivalis conditioned medium (P.g. C.M.). Details: species or system Porphyromonas gingivalis. As to conditions: for increase in fluorescence in the P. gingivalis conditioned medium (P.g. C.M.): compared to the basic TSB media. The source says: (§1) Specifically, P. gingivalis is known to secrete gingipain (Kgp, Rgp) and outer membrane vesicles (OMVs) (FIG. 1A). Causative bacteria of periodontitis, i.e., P. gingivalis, F. nucleatum, and A. actinomycetecomitans, were observed using a scanning electron microscope (SEM) (FIG. 1B). Afterward, the conditioned media (C.M.) were isolated (FIG. 1C).
(§2) Therefore, the present inventors screened 24 types of thiol-reactive fluorescent compound libraries using the conditioned media. Here, four types of thiol-reactive MitoTrackers were used as control materials.
(§3) After culturing living P. gingivalis, F. nucleatum, and A. actinomycetecomitans with the fluorescent compound DTC630, and MitoTracker™ Red, cell-specific fluorescence reactions were compared.

Experiment [2] deals with A. actinomycetecomitans conditioned medium (A.a C.M.). As to the kind of experiment: Fluorescence reaction in A. actinomycetecomitans conditioned medium. As to conditions: compared to the basic TSB media.
From the text: as §1, §2, §3

The test system of experiment [3] is F. nucleatum conditioned medium (F.n. C.M.). The experiment is described as follows: Fluorescence reaction in F. nucleatum conditioned medium. To be noted: compared to the basic TSB media.
From the text: as §1, §2, §3

The test system of the next experiment is calpain. As to the kind of experiment: Fluorescence spectrum after culture with calpain. The class given is binding, human. To be noted: 10 μM, λex=425 nm; for detection of calpain (fluorescence compared to PBS), in words: λem=450-700 nm. As for the experimental part:
(§4) Specifically, after the gingipains (Kgp and Rgp) secreted from P. gingivalis, calpain, which is a cysteine protease, and trypsin, which is a serine protease, were cultured with fluorescent compound DTC630 (10 μM), a fluorescence spectrum was measured (λex=425 nm, λem=450-700 nm).
(§5) In addition, the degree of fluorescence reaction of fluorescent compound DTC630 (1, 3, 10, 30, and 100 μM) was measured at each concentration for Kgp, Rgp, calpain, and trypsin (final concentration: 0.3 mg/mL).

A further experiment deals with Kgp. The experiment is described as follows: Fluorescence spectrum after culture with Kgp. The class given is binding, P. gingivalis. As to conditions: 10 μM, λex=425 nm; for detection of Kgp (fluorescence compared to PBS), in words: λem=450-700 nm. The method, then: as §4, §5
A further experiment concerns trypsin. As to the kind of experiment: Fluorescence spectrum after culture with trypsin. The class given is binding, human. To be noted: 10 μM, λex=425 nm; for detection of trypsin (fluorescence compared to PBS), in words: λem=450-700 nm. As for the experimental part: as §4, §5
The target of the next experiment is Rgp (Porphyromonas gingivalis, UniProt P28784). As to the kind of experiment: Fluorescence spectrum after culture with Rgp. As to conditions: 10 μM, λex=425 nm; for detection of Rgp (fluorescence compared to PBS), in words: λem=450-700 nm. The class given is binding, P. gingivalis. As for the experimental part:
as §4, §5

Sequence of Rgp (P28784 228-991): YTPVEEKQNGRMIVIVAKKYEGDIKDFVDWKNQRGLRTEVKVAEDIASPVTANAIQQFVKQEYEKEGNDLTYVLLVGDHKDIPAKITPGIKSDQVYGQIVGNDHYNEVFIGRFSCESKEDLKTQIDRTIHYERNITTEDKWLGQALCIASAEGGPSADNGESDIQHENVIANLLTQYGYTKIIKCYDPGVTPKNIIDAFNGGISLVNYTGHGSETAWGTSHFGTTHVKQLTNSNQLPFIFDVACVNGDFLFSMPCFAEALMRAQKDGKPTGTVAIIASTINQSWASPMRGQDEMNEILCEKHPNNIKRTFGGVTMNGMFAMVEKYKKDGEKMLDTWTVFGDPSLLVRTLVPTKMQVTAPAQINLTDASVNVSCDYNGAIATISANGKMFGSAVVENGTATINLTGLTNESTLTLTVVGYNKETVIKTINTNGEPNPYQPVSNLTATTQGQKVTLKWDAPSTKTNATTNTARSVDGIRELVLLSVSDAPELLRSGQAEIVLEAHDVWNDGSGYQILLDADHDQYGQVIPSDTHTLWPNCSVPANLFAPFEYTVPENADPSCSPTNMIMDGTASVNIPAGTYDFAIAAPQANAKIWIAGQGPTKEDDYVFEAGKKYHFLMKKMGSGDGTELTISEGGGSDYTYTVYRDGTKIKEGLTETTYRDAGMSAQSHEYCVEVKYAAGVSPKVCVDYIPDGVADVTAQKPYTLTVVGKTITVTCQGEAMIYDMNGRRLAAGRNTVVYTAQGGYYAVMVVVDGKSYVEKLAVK

Take `CN(C)c1ccc(-c2ccc(/C=C(\C#N)c3nnn[nH]3)cc2)cc1` [DTC630, (E)-3-(4′-(dimethylamino)-[1,1′-biphenyl]-4-yl)-2-(1H-tetrazol-5-yl) acrylonitrile]: the “increase in fluorescence in the P. gingivalis conditioned medium (P.g. C.M.)” value in experiment [1] came to 6.2±0.2 fold. Further, the “increase in fluorescence in the A. actinomycetecomitans conditioned medium (A.a C.M.)” value in experiment [2] was 1.5±0.1 fold. For the same compound, in experiment [3], the “increase in fluorescence in the F. nucleatum conditioned medium (F.n. C.M.)” value was found to be 1.6±0.1 fold.

As for `CN(C)c1ccc(-c2ccc(C=C(C#N)C#N)cc2)cc1` [DTC2352, 2-((4′-(dimethylamino)-[1,1′-biphenyl]-4-yl)methylene)malononitrile], the “selectivity of fluorescence reaction for P. gingivalis conditioned medium (library screen heatmap)” value in experiment [1] (fluorescence magnification for TSB medium, screen of 24 thiol-reactive fluorescent compounds) is on record as “does not exhibit a P. gingivalis-selective fluorescence reaction”. In addition, the “detection of calpain (fluorescence compared to PBS), in words” value with calpain is “no increase in fluorescence”. In the experiment on Kgp, the “fluorescence increase for Kgp compared to PBS” value is recorded as 3±0 fold and the “detection of Kgp (fluorescence compared to PBS), in words” value is listed as “no increase in fluorescence”. In the experiment with trypsin, the “detection of trypsin (fluorescence compared to PBS), in words” value is “no increase in fluorescence”. Further, the “detection of Rgp (fluorescence compared to PBS), in words” value on Rgp is given as “no increase in fluorescence”.

With `ClCc1ccc(C2=c3cc4c5c(c3Oc3c2cc2c6c3CCCN6CCC2)CCC[N+]=5CCC4)cc1.[Cl-]` [MitoTracker™ Red], the “increase in fluorescence in the P. gingivalis conditioned medium (P.g. C.M.)” value in experiment [1] is recorded as 5.6±0.6 fold. Further, in experiment [2], the “increase in fluorescence in the A. actinomycetecomitans conditioned medium (A.a C.M.)” value was determined as 4.5±0.1 fold. In the experiment on calpain, the “fluorescence increase for calpain compared to PBS” value amounted to 163±1 fold and the “detection of calpain (fluorescence compared to PBS), in words” value was “increase in fluorescence”. Besides, in experiment [3], the “increase in fluorescence in the F. nucleatum conditioned medium (F.n. C.M.)” value is 3.2±0.1 fold. In addition, in the experiment on Kgp, the “fluorescence increase for Kgp compared to PBS” value was 145±5 fold and the “detection of Kgp (fluorescence compared to PBS), in words” value is “increase in fluorescence”. For the same compound, in the experiment on trypsin, the “fluorescence increase for trypsin compared to PBS” value is given as 93±9 fold and the “detection of trypsin (fluorescence compared to PBS), in words” value is recorded as “increase in fluorescence”. Further, on Rgp, the “fluorescence increase for Rgp compared to PBS” value was found to be 126±6 fold and the “detection of Rgp (fluorescence compared to PBS), in words” value is listed as “increase in fluorescence”.
